Like-named read-outs stand apart in the source and are kept apart here.
Key:
mT2R5 (C57BL/6-allele) = target: T1, mT2R5 (C57BL/6-allele) (Mus musculus, UniProt Q9JKT4, G155D/I85V/L294R/T101A/T44I); assay: FURA-2 [Ca2+]i imaging in HEK-293 cells expressing Gα15 and rho-mT2R5 from non-taster strain (C57BL/6 allele); format: cell-based
T1 construct: expressed in transfected cells; host or cells: modified HEK-293 cells (PEAKrapid) expressing Gα15
T1 sequence (Q9JKT4 1-300 T44I/I85V/T101A/G155D/L294R): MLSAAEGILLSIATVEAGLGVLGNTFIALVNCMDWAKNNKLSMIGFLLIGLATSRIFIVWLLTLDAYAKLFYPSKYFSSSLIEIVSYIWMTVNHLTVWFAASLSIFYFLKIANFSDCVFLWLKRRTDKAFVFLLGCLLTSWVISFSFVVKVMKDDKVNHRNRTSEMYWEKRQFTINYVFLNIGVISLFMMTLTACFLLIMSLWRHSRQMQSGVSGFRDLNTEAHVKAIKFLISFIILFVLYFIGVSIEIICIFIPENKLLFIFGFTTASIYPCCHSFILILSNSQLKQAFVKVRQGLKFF
Description: A bridge overlap PCR extension technique was used to generate rho-T2R chimeras, which contain the first 39 amino acids of bovine rhodopsin in frame with human and rodent T2R coding sequences (Mehta and Singh, Biotechniques 26:1082-1086 (1999). All receptors were cloned into a pEAK10 mammalian expression vector (Edge Biosystems, MD). Modified HEK-293 cells (PEAK^rapid cells; Edge BioSystems, MD) were grown and maintained at 37° C. in UltraCulture medium (Bio Whittaker) supplemented with 5% fetal bovine serum, 100 μg/ml Gentamycin sulphate (Fisher), 1 μg/ml Amphotericin B and 2 mM GlutaMax I (Lifetechnologies). […]
Transfected cells were washed once in Hank's balanced salt solution with 1 mM sodium pyruvate and 10 mM HEPES, pH 7.4 (assay buffer), and loaded with 2 μM FURA-2 AM (Molecular Probes) for 1 h at room temperature. […] [Ca^2+]i changes were monitored using a Nikon Diaphot 200 microscope equipped with a 10×/0.5 fluor objective with the TILL imaging system (T.I.L.L Photonics GmbH). Acquisition and analysis of the fluorescence images used TILL-Vision software. Generally, [Ca^2+]i was measured for 80-120 s by sequentially illuminating cells for 200 ms at 340 nm and 380 nm and monitoring the fluorescence emission at 510 nm using a cooled CCD camera. The F340/F380 ratio was analyzed to measure [Ca^2+]i. […]

[1] = tested on: Cyx taster and non-taster mouse strains; conditions: cited from earlier work; for taste behaviour: non-taster strains
mT2R8 = target: T2, mT2R8 (Mus musculus, UniProt Q9JKT3); assay: FURA-2 [Ca2+]i imaging in HEK-293 cells expressing Gα15 and rho-mT2R8; format: cell-based; conditions: for [Ca2+]i response (FURA-2): 1.5 mM denatonium
T2 construct: expressed in transfected cells; host or cells: HEK-293 cells (PEAKrapid) expressing Gα15
T2 sequence (Q9JKT3 1-297): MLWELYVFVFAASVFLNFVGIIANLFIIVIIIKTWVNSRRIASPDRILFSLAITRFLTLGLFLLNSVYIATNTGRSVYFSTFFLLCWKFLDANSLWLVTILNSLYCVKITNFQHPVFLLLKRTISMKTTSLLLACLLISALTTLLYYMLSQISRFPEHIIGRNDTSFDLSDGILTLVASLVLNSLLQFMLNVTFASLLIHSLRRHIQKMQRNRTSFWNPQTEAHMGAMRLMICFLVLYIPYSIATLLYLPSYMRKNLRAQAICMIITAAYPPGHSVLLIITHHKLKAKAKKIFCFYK
Text: In this system, receptor activation leads to increases in intracellular calcium [Ca2+]i, which can be monitored at the single cell level using the FURA-2 calcium-indicator dye (Tsien et al., Cell Calcium 6:145-157 (1985)). To test and optimize Gα15 coupling, two different GPCRs, a Gαi-coupled μ-opioid receptor (Reisine, Neuropharm. 34:463-472 (1995)) and a Gαq-coupled mGluR1 receptor (Masu et al., Nature 349:760-765 (1991)), were used. Transfection of these receptors into HEK-293 cell produced robust, agonist-selective, and Gα15-dependent Ca^2+ responses (FIG. 1).
A number of studies have shown that many GPCRs, in particular sensory receptors, require specific “chaperones” for maturation and targeting through the secretory pathway (Baker et al., Embo J 13:4886-4895 (1994); Dwyer et al., Cell 93:455-466 (1998)). Recently, Krautwurst et al. (Cell 95:917-926 (1998)) generated chimeric receptors consisting of the first 20 amino acids of rhodopsin and various rodent olfactory receptors. These were targeted to the plasma membrane and functioned as odorant receptors in HEK-293 cells. To determine whether rhodopsin sequences can also help target T2Rs to the plasma membra, rhodopsin-T2R chimeras (rho-T2Rs) were constructed. […] Similar results were obtained with 11 human and 16 rodent T2Rs (see below). To further enhance the level of T2R expression, rho-T2Rs were placed under the control of a strong EF-1α promoter, and introduced as episomal plasmids into modified HEK-293 cells expressing Gα15 (pEAKrapid cells).
A bridge overlap PCR extension technique was used to generate rho-T2R chimeras, which contain the first 39 amino acids of bovine rhodopsin in frame with human and rodent T2R coding sequences (Mehta and Singh, Biotechniques 26:1082-1086 (1999). All receptors were cloned into a pEAK10 mammalian expression vector (Edge Biosystems, MD). Modified HEK-293 cells (PEAK^rapid cells; Edge BioSystems, MD) were grown and maintained at 37° C. in UltraCulture medium (Bio Whittaker) supplemented with 5% fetal bovine serum, 100 μg/ml Gentamycin sulphate (Fisher), 1 μg/ml Amphotericin B and 2 mM GlutaMax I (Lifetechnologies). For transfection, cells were seeded onto matrigel coated 24-well culture plates or 35 mm recording chambers. After 24 h at 37° C., cells were washed in OptiMEM medium (Lifetechnologies) and transfected using LipofectAMINE reagent (Lifetechnologies). Transfection efficiencies were estimated by co-transfection of a GFP reporter plasmid, and were typically >70%. Immunofluoresence staining, and activity assays were performed 36-48 h after transfection.
Transfected cells were washed once in Hank's balanced salt solution with 1 mM sodium pyruvate and 10 mM HEPES, pH 7.4 (assay buffer), and loaded with 2 μM FURA-2 AM (Molecular Probes) for 1 h at room temperature. The loading solution was removed and cells were incubated in 200 μl of assay buffer for 1 h to allow the cleavage of the AM ester. […] [Ca^2+]i changes were monitored using a Nikon Diaphot 200 microscope equipped with a 10×/0.5 fluor objective with the TILL imaging system (T.I.L.L Photonics GmbH). Acquisition and analysis of the fluorescence images used TILL-Vision software. Generally, [Ca^2+]i was measured for 80-120 s by sequentially illuminating cells for 200 ms at 340 nm and 380 nm and monitoring the fluorescence emission at 510 nm using a cooled CCD camera. The F340/F380 ratio was analyzed to measure [Ca^2+]i.
Kinetics of activation and deactivation were measured using a bath perfusion system. […]

other hT2Rs = assay: FURA-2 [Ca2+]i imaging in control untransfected cells or cells transfected with other hT2Rs; format: cell-based, human
Description: To determine whether other T2Rs are also activated by bitter compounds, 11 rhodopsin-tagged human T2R receptors were assayed by individually transfecting them into HEK-293 cells expressing Gα15. Each transfected line was tested against a battery of bitter and sweet tastants, including amino acids, peptides, and other natural and synthetic compounds.

| receptor activation (mT2R8) | [Ca2+]i response (FURA-2) (mT2R8; absence of Gα15) | [Ca2+]i response (FURA-2) (mT2R8; with Gα15) | increase in [Ca2+]i on tastant stimulation (mT2R8; concentrations as in FIG. 4 (denatonium 5 mM)) | SMILES | EC50 (mT2R5 (C57BL/6-allele)) [nM] | dose response compared with receptor from taster strains (mT2R5 (C57BL/6-allele)) | avoidance threshold ([1]; Cyx taster strains) | taste behaviour ([1]; at 8 μM) | taste behaviour ([1]; at 1) | decrease in sensitivity ([1]; non-tasters vs taster strains) [fold] | sensitivity threshold ([1]; rodents) [µM] | [Ca2+]i response (other hT2Rs) |
| --- | --- | --- | --- | --- | --- | --- | --- | --- | --- | --- | --- | --- |
|  |  |  |  | C[C@@H]1C[C@@H]([C@H](O)CC2CC(=O)NC(=O)C2)C(=O)[C@@H](C)C1 [cycloheximide] | ~2300 | shift in cycloheximide sensitivity | 0.25 | strongly avoid | non-tasters | ~8 | ~0.25 |  |
| activated | No increase in [Ca2+]i | robust Gα15 dependent responses | increase in [Ca2+]i could be induced | CC[N+](CC)(CC(=O)Nc1c(C)cccc1C)Cc1ccccc1 [denatonium] |  |  |  |  |  |  |  | not |
